“Also recorded” adds a separate entry of the source.
Tested on: HOS-FRα xenografts
Experiment: HOS-FRα osteosarcoma subcutaneous xenograft, E2 CAR-T cells plus EC17
Assay type: in vivo, NSG mice
Description: Panel A: Schematic diagram to show dose scheduling of CAR-T cells (˜6 million, day 0) plus EC17 in NSG mice with 3-day-old subcutaneous HOS-FRα xenografts (n=5). Starting 3 days after CAR-T cell injection (6 days after tumor implant), 3 cycles of EC17 M/Th/M […], i.e. on days 3/6/10, 17/20/24, and 31/34/38. Panel B: Measurements of tumor volumes and change in body weights. Due to tumor progression, five mice received CAR-T cells only (no EC17) were euthanized on days 23-31, and five EC17 treated mice were euthanized on days 33 (2 mice) and 47 (3 mice), respectively. Panel C: Flow cytometric analysis of CAR-T cells (human CD3ε+EGFRT+) PER 100 μL OF WHOLE BLOOD PLOTTED ON A LOGARITHMIC SCALE (LEFT) AND TUMOR-infiltrating CAR-T cells at the time of euthanasia (right).
HOS-FRα (i.e. HOS-143b-LV-FRα) is a subclone of HOS-143B (ATCC CRL-8303) stably transfected with human FRα. HOS-143B was originally derived from a […] with osteosarcoma. The tumor cells were grown in folate-deficient RPMI 1640 with 5% FBS at 37° C. in a 5% CO2 humidified atmosphere. For the in-vivo study, tumor cells were inoculated subcutaneously at 1×10^6 cells per animal.
EGFRt-sorted anti-FITC E2 scFv-CAR T cells were frozen in a T-cell freezing medium. Upon arrival, vials of frozen CAR-T cells were immediately stored at −80° C. The CAR-T cells were quickly thawed at 37° C., washed twice with PBS, and used for animal injection at 6 million viable EGFRt+ E2 CAR-T cells (CD4/CD8 at ˜1:1) per animal. A small aliquot was taken on the day infusion for flow cytometric analysis of E2-CAR T-cell phenotypes.
EC17 dosing solutions were prepared when dosing began by weighing appropriate amounts of each compound, reconstituting in PBS, pH 7.4, sterile filtering the drug solution through a 0.22 μm PVDF syringe filter, and freezing aliquots for each day of dosing at −20° C.
All EC17 doses were given towards the end of day (3-4 PM) to allow potential CRS (cytokine release syndrome) to develop overnight. On the following morning, animals were scored according to a CRS grading system (see below).
Tumor growth, body weight, and overall assessment: Tumor sizes were monitored 2-3 times/week and body weight measured 2-3 times/week. On the days immediately after any EC17 dose, body weight measurement was taken daily and attention was given to gross animal morphology and behavior.
Euthanasia: Euthanasia was performed when mice had lost ≥20% of their weight, when tumors reached ≥1500 mm^3. Euthanasia was also performed if mice lost a lot of weight in a short duration (e.g., due to severe head-tilt), or when they approached moribund conditions per CRS grading system. • EC17 intra-host dose escalation treatment (3 cycles). See FIG. 16. • Antitumor activity (N=5)
All animal care and use were performed according to NIH guidelines and in compliance with protocols approved by the Purdue University Animal Use and Care Committee. Female 4 to 5-week-old NOD/SCID gamma (NSG™) mice (stock number: 005557) were purchased from The Jackson Laboratory (Bar Harbor, ME). Unless specifically indicated, all animals were maintained on a FA-deficient diet (TestDiet, St. Louis, MO) upon arrival and throughout the study. To establish subcutaneous xenografts, MDA-MB-231 and HOS-FRα were implanted in the right flank region at 2.5×10^6 and 1×10^6 cells per animal, respectively. […] Subcutaneous tumors were measured 2-3 times per week with a caliper and calculated using the ellipsoidal formula (length×width^2)/2. […]

Q: Nc1nc2ncc(CNc3ccc(C(=O)N[C@@H](CCC(=O)NCCNC(=S)Nc4ccc(-c5c6ccc(=O)cc-6oc6cc(O)ccc56)c(C(=O)O)c4)C(=O)O)cc3)nc2c(=O)[nH]1 [EC17, FA-(γ)-ethylenediamine-FITC] was tested. Which “tumor volume (antitumor activity)” value (6 million E2 CAR-T cells + EC17 5/100/1000 nmol/kg, M/Th/M (Cohort 2, FIG. 4)) did it give?
A: significant tumor regression

Q: What about the “body weight loss or CRS” value (6 million E2 CAR-T cells + EC17 slow dose escalation M/Th/M (Cohort 2, FIG. 4)) of the same compound?
A: without body weight loss or CRS; also recorded: No body weight loss or symptoms of cytokine release syndrome (CRS) were observed

Q: What about the “day of euthanasia due to tumor progression” value (five EC17 treated mice, EC17 M/Th/M dose escalation) of the same compound?
A: 33 (2 mice) and 47 (3 mice) days

Q: What about the “CRS or body weight loss” value (~6 million E2-CAR-T cells + EC17 5/10/100, 5/30/300, 5/50/500 nmol/kg Cycles 1-3, M/Th/M (FIG. 14)) of the same compound?
A: no CRS or body weight loss

Q: And the tumor growth (~6 million E2-CAR-T cells + EC17 5/10/100, 5/30/300, 5/50/500 nmol/kg Cycles 1-3, M/Th/M, 6-day break (FIG. 14))?
A: significant delay in tumor growth; also recorded: stopped responding to treatment in Cycle 3
